Assay [1] concerns Pseudomonas aeruginosa. The experiment in a line: Antibacterial activity against Pseudomonas aeruginosa 259-96918 assessed as fractional inhibitory concentration incubated for 18 hrs in presence of chloramphenicol by broth microdilution assay. The class given is functional.
The test system of assay [2] is Pseudomonas aeruginosa. The experiment in a line: Antibacterial activity against Pseudomonas aeruginosa 91433 assessed as fractional inhibitory concentration incubated for 18 hrs in presence of doxycycline by broth microdilution assay. The class given is functional.
In assay [3] the test system is Pseudomonas aeruginosa. The experiment in a line: Antibacterial activity against Pseudomonas aeruginosa 259-96918 assessed as fractional inhibitory concentration incubated for 18 hrs in presence of doxycycline by broth microdilution assay. The class given is functional. (Dilution methods test growth across graded concentrations, often in twofold steps.)
Assay [4] has as its system Pseudomonas aeruginosa. Kind of assay: Antibacterial activity against Pseudomonas aeruginosa 259-96918 assessed as reduction in bacterial growth by measuring doxycycline MIC at 2 ug/ml incubated for 18 hrs in presence of doxycycline by broth microdilution assay (reference value: 32 ug/ml). Format: functional. Particulars: dose 2 µg/ml.
Assay [5] relates to Pseudomonas aeruginosa. The experiment in a line: Antibacterial activity against Pseudomonas aeruginosa 260-97103 assessed as reduction in bacterial growth by measuring chloramphenicol MIC at 2 ug/ml incubated for 18 hrs in presence of chloramphenicol by broth microdilution assay (reference value: 128 ug/ml). The class given is functional. Particulars: dose 2 µg/ml.
For assay [6], the system named is Pseudomonas aeruginosa. Kind of assay: Antibacterial activity against Pseudomonas aeruginosa 100036 assessed as fractional inhibitory concentration incubated for 18 hrs in presence of minocycline by broth microdilution assay. The class given is functional.
The subject of assay [7] is Pseudomonas aeruginosa. The experiment in a line: Potentiation of doxycycline-induced antibacterial activity against Pseudomonas aeruginosa 114228 assessed as fold change in doxycycline MIC at 9.8 uM incubated for 18 hrs in presence of doxycycline by broth microdilution assay relative to control. Format: functional.
Assay [8] concerns Pseudomonas aeruginosa. Kind of assay: Antibacterial activity against Pseudomonas aeruginosa 101885 assessed as fractional inhibitory concentration index incubated for 18 hrs in presence of tigecycline by broth microdilution assay. The class given is functional.
In assay [9] the test system is Pseudomonas aeruginosa. The experiment in a line: Potentiation of chloramphenicol-induced antibacterial activity against wild type Pseudomonas aeruginosa PAO1 assessed as fold change in chloramphenicol MIC at <=9.8 uM incubated for 18 hrs in presence of chloramphenicol by broth microdilution assay. Format: functional. The following applies: dose microM <=9.8.
In assay [10] the test system is Pseudomonas aeruginosa. Kind of assay: Antibacterial activity against Pseudomonas aeruginosa 91433 assessed as fractional inhibitory concentration index incubated for 18 hrs in presence of tigecycline by broth microdilution assay. The class given is functional.
Assay [11] concerns Pseudomonas aeruginosa. The experiment in a line: Antibacterial activity against Pseudomonas aeruginosa 100036 assessed as fractional inhibitory concentration index incubated for 18 hrs in presence of rifampicin by broth microdilution assay. Format: functional.
The test system of assay [12] is Pseudomonas aeruginosa. The experiment in a line: Potentiation of doxycycycline-induced bactericidal activity against Pseudomonas aeruginosa PAO1 assessed as reduction in bacterial colonies incubated for >= 24 hrs in LB medium in presence of doxycycline followed by plating on agar plate and measured after 20 hrs by time-kill assay. Format: functional, organism-based. The following applies: dose 4.9-9.8 µM, time hrs >=44.

The test system of assay [13] is Pseudomonas aeruginosa. The experiment in a line: Antibacterial activity against Pseudomonas aeruginosa 259-96918 assessed as fractional inhibitory concentration index incubated for 18 hrs in presence of rifampicin by broth microdilution assay. Format: functional.
The test system of assay [14] is Pseudomonas aeruginosa. The experiment in a line: Antibacterial activity against Pseudomonas aeruginosa 259-96918 assessed as fractional inhibitory concentration index incubated for 18 hrs in presence of tigecycline by broth microdilution assay. The class given is functional.
The subject of assay [15] is Pseudomonas aeruginosa. Kind of assay: Potentiation of doxycycline-induced antibacterial activity against Pseudomonas aeruginosa 259-96918 assessed as fold change in doxycycline MIC at 9.8 uM incubated for 18 hrs in presence of doxycycline by broth microdilution assay relative to control. Format: functional.
Assay [16] has as its system Pseudomonas aeruginosa. The experiment in a line: Antibacterial activity against Pseudomonas aeruginosa 101243 assessed as potentiation of chloramphenicol-induced antibacterial activity by measuring chloramphenicol MIC at 9.8 uM incubated for 18 hrs in presence of chloramphenicol by broth microdilution assay (reference value: 1 ug/ml). The class given is functional.

In assay [17] the test system is Pseudomonas aeruginosa. The experiment in a line: Antibacterial activity against Pseudomonas aeruginosa 114228 assessed as fractional inhibitory concentration index incubated for 18 hrs in presence of rifampicin by broth microdilution assay. Format: functional.
In assay [18] the test system is Pseudomonas aeruginosa. Kind of assay: Potentiation of doxycycline-induced antibacterial activity against wild type Pseudomonas aeruginosa PAO1 assessed as fold change in doxycycline MIC at <=9.8 uM incubated for 18 hrs in presence of doxycycline by broth microdilution assay. The class given is functional. Particulars: dose microM <=9.8.
The test system of assay [19] is Pseudomonas aeruginosa. Kind of assay: Antibacterial activity against Pseudomonas aeruginosa 259-96918 assessed as fractional inhibitory concentration incubated for 18 hrs in presence of rifampicin by broth microdilution assay. Format: functional.
Assay [20] concerns Pseudomonas aeruginosa. The experiment in a line: Antibacterial activity against Pseudomonas aeruginosa 114228 assessed as fractional inhibitory concentration index incubated for 18 hrs in presence of tigecycline by broth microdilution assay. The class given is functional.
For assay [21], the system named is Pseudomonas aeruginosa. The experiment in a line: Antibacterial activity against Pseudomonas aeruginosa 260-97103 infected in Galleria mellonella larvae assessed as survival of larvae at 75 mg/kg treated at 3 hrs post-infection in presence of chloramphenicol and measured after 24 hrs relative to control. The class given is functional.
Assay [22] has as its system Pseudomonas aeruginosa. Kind of assay: Antibacterial activity against Pseudomonas aeruginosa 262-101856 assessed as fractional inhibitory concentration incubated for 18 hrs in presence of rifampicin by broth microdilution assay. The class given is functional.
The subject of assay [23] is Pseudomonas aeruginosa. The experiment in a line: Potentiation of chloramphenicol-induced antibacterial activity against Pseudomonas aeruginosa 101243 assessed as fold change in chloramphenicol MIC at 7.6 uM incubated for 18 hrs in presence of chloramphenicol by broth microdilution assay relative to control. Format: functional.
Assay [24] has as its system Pseudomonas aeruginosa. Kind of assay: Potentiation of chloramphenicol-induced antibacterial activity against Pseudomonas aeruginosa 262-101856 assessed as fold change in chloramphenicol MIC at 7.6 uM incubated for 18 hrs in presence of chloramphenicol by broth microdilution assay relative to control. Format: functional.
A further assay has as its system Escherichia coli. The experiment in a line: Potentiation of doxycycline-induced antibacterial activity against Escherichia coli ATCC 25922 assessed as fold change in doxycycline MIC at 7.6 uM incubated for 18 hrs in presence of doxycycline by broth microdilution assay relative to control. Format: functional.
Assay [25] concerns Pseudomonas aeruginosa. The experiment in a line: Potentiation of doxycycline-induced antibacterial activity against Pseudomonas aeruginosa 259-96918 assessed as fold change in doxycycline MIC at 7.6 uM incubated for 18 hrs in presence of doxycycline by broth microdilution assay relative to control. The class given is functional.
The test system of assay [26] is Pseudomonas aeruginosa. Kind of assay: Antibacterial activity against Pseudomonas aeruginosa 260-97103 assessed as potentiation of chloramphenicol-induced antibacterial activity by measuring chloramphenicol MIC at 7.6 uM incubated for 18 hrs in presence of chloramphenicol by broth microdilution assay (reference value: 128 ug/ml). Format: functional.
For assay [27], the system named is Pseudomonas aeruginosa. Kind of assay: Antibacterial activity against Pseudomonas aeruginosa 114228 assessed as potentiation of doxycycline-induced antibacterial activity by measuring doxycycline MIC at 7.6 uM incubated for 18 hrs in presence of doxycycline by broth microdilution assay (reference value: 32 ug/ml). Format: functional.
Assay [28] concerns Pseudomonas aeruginosa. The experiment in a line: Antibacterial activity against Pseudomonas aeruginosa 262-101856 assessed as potentiation of chloramphenicol-induced antibacterial activity by measuring chloramphenicol MIC at 7.6 uM incubated for 18 hrs in presence of chloramphenicol by broth microdilution assay (reference value: 2048 ug/ml). The class given is functional.
For assay [29], the system named is Pseudomonas aeruginosa. Kind of assay: Antibacterial activity against Pseudomonas aeruginosa 260-97103 assessed as potentiation of doxycycline-induced antibacterial activity by measuring doxycycline MIC at 7.6 uM incubated for 18 hrs in presence of doxycycline by broth microdilution assay (reference value: 16 ug/ml). The class given is functional.
The subject of assay [30] is Pseudomonas aeruginosa. Kind of assay: Potentiation of doxycycline-induced antibacterial activity against Pseudomonas aeruginosa 91433 assessed as fold change in doxycycline MIC at 7.6 uM incubated for 18 hrs in presence of doxycycline by broth microdilution assay relative to control. Format: functional.

Here are results for 4 compounds from ChEMBL document CHEMBL4715829, “Heterodimeric Rifampicin-Tobramycin conjugates break intrinsic resistance of Pseudomonas aeruginosa to doxycycline and chloramphenicol in vitro and in a Galleria mellonella in vivo model” (Eur J Med Chem, 2019).

As for `NC[C@H]1O[C@H](O[C@H]2[C@H](O)[C@@H](O[C@H]3O[C@H](CO)[C@@H](O)[C@H](N)[C@H]3O)[C@H](N)C[C@@H]2N)[C@H](N)C[C@@H]1O` [TOBRAMYCIN], the results for the FIC with Pseudomonas aeruginosa [1], with Pseudomonas aeruginosa [2] and in the assay with Pseudomonas aeruginosa [3] were 0.25, 0.5 and 0.125, respectively.
Turning to `CO[C@H]1/C=C/O[C@@]2(C)Oc3c(C)c(O)c4c(O)c(c(/C=N/N5CCN(C)CC5)c(O)c4c3C2=O)NC(=O)/C(C)=C\C=C\[C@H](C)[C@H](O)[C@@H](C)[C@@H](O)[C@@H](C)[C@H](OC(C)=O)[C@@H]1C` [RIFAMPIN], the MIC with Pseudomonas aeruginosa [4] was determined as 32 µg/mL; with Pseudomonas aeruginosa [5], 128 µg/mL.
`CO[C@H]1/C=C/O[C@@]2(C)Oc3c(C)c(O)c4c(O)c(c(/C=N/N5CCN(Cc6cn(CCCCCCO[C@@H]7[C@@H](O[C@H]8O[C@H](CO)[C@@H](O)[C@H](N)[C@H]8O)[C@H](N)C[C@H](N)[C@H]7O[C@H]7O[C@H](CN)[C@@H](O)C[C@H]7N)nn6)CC5)c(O)c4c3C2=O)NC(=O)/C(C)=C\C=C\[C@H](C)[C@H](O)[C@@H](C)[C@@H](O)[C@@H](C)[C@H](OC(C)=O)[C@@H]1C.Cl.Cl.Cl.Cl.Cl`: the FIC was 0.063 in the assay with Pseudomonas aeruginosa [6], <0.125 in the assay with Pseudomonas aeruginosa [19] and <0.008 in the assay with Pseudomonas aeruginosa [22]. Besides, the “fold change (FC)” value in the assay on Pseudomonas aeruginosa [7] is given as 4; with Pseudomonas aeruginosa [9], 32; with Pseudomonas aeruginosa [15] it was 4; in the assay on Pseudomonas aeruginosa [18], 32. Besides, the “fractional inhibitory concentration index (FICI)” value in the assay with Pseudomonas aeruginosa [8] is on record as 0.19; in the assay on Pseudomonas aeruginosa [10] it was 1.13; with Pseudomonas aeruginosa [11] it was 0.31; with Pseudomonas aeruginosa [13], <0.25; in the assay on Pseudomonas aeruginosa [14] it was <0.25; in the assay with Pseudomonas aeruginosa [17], <0.53. In the assay on Pseudomonas aeruginosa [20], the “fractional inhibitory concentration index (FICI)” value is given as <0.53. Further, the Activity result in the assay on Pseudomonas aeruginosa [12] was “Dose-dependent effect”. In addition, the minimal inhibitory concentration (MIC) with Pseudomonas aeruginosa [16] was 0.125 µg/mL. Besides, the survival at 75 mg/kg in the assay on Pseudomonas aeruginosa [21] came out at 10%.
In the case of `CO[C@H]1/C=C/O[C@@]2(C)Oc3c(C)c(O)c4c(O)c(c(/C=N/N5CCN(Cc6cn(CCCCCCCCCCCCO[C@@H]7[C@@H](O[C@H]8O[C@H](CO)[C@@H](O)[C@H](N)[C@H]8O)[C@H](N)C[C@H](N)[C@H]7O[C@H]7O[C@H](CN)[C@@H](O)C[C@H]7N)nn6)CC5)c(O)c4c3C2=O)NC(=O)/C(C)=C\C=C\[C@H](C)[C@H](O)[C@@H](C)[C@@H](O)[C@@H](C)[C@H](OC(C)=O)[C@@H]1C.O=C(O)C(F)(F)F.O=C(O)C(F)(F)F.O=C(O)C(F)(F)F.O=C(O)C(F)(F)F.O=C(O)C(F)(F)F`, the “fold change (FC)” value in the assay on Pseudomonas aeruginosa [23] is listed as 4; in the assay with Pseudomonas aeruginosa [24], 4; with Escherichia coli, 0; in the assay with Pseudomonas aeruginosa [25], 4; with Pseudomonas aeruginosa [30] it was 4. Besides, the MIC with Pseudomonas aeruginosa [26] stood at 0.5 µg/mL; with Pseudomonas aeruginosa [27], 2 µg/mL; with Pseudomonas aeruginosa [28], 128 µg/mL; with Pseudomonas aeruginosa [29] it was 0.125 µg/mL.

As usually defined, the MIC is the least concentration at which growth counts as inhibited.
